Source: ChEMBL document CHEMBL1201862, “PubChem BioAssay data set” (2004)
Calls of active or inactive are those of the source.

How the values were obtained:
[1] = biological target: T1, Short transient receptor potential channel 4 (Mus musculus, UniProt Q9QUQ5); assay: mouse TRPC4 channel activators, dose response, cell-based, HEK293 TRPC4/mu-opioid, Fluo-4 calcium (AID 434937); assay type: functional
T1 sequence (Q9QUQ5 whole entry): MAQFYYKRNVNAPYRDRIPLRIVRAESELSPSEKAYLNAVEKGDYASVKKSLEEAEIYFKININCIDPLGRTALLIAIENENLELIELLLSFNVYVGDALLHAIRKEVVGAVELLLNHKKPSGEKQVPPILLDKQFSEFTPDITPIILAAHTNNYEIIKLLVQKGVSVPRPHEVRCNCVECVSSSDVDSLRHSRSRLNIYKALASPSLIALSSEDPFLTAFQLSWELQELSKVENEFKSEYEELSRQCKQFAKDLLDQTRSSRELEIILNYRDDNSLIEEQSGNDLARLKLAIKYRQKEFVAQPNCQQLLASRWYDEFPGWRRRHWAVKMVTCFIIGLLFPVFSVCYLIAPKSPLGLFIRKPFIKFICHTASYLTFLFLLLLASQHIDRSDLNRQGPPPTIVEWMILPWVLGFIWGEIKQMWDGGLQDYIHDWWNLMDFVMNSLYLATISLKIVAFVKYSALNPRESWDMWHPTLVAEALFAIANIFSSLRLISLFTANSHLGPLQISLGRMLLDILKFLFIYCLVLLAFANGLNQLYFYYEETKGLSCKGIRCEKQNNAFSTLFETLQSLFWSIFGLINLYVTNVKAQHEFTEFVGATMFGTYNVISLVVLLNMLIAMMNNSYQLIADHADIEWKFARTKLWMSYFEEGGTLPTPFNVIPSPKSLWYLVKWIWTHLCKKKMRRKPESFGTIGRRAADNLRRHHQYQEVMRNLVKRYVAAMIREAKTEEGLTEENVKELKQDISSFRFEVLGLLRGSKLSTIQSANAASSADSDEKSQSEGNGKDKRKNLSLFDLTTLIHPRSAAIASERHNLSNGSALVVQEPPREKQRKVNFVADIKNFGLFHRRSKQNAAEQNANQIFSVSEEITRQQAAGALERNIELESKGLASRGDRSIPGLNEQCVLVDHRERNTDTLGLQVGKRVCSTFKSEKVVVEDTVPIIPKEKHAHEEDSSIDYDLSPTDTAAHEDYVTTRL

[2] = biological target: T2, Long-chain-fatty-acid--AMP ligase FadD28 (Mycobacterium tuberculosis, UniProt P9WQ59); assay: Fluorescence polarization aasay to screen for inhibitors that compete for the binding of FadD28 to a bisubstrate Measured in Biochemical System Using Plate Reader - 2147-01_Inhibitor_Dose_CherryPick_Activity.; assay type: functional, Mycobacterium tuberculosis H37Rv
T2 sequence (P9WQ59 whole entry): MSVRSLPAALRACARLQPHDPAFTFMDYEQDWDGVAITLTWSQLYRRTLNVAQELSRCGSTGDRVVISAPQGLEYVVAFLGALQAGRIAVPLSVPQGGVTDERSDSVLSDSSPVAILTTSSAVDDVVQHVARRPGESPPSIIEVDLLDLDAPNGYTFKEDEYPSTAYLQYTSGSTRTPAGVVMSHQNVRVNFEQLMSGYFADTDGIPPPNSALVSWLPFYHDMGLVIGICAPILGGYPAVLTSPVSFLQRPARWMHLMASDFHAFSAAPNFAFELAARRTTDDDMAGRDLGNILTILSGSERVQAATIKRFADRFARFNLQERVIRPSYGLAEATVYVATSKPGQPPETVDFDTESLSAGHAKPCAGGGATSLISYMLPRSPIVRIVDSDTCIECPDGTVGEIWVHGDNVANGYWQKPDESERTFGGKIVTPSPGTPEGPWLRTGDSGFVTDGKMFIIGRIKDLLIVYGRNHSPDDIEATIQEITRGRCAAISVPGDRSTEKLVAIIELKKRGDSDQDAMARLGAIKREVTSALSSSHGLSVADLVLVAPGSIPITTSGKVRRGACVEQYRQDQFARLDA

SUMO-activating enzyme = SUMO-activating enzyme (Homo sapiens, UniProt Q9UBT2); assay: SUMOylation inhibitor hit validation, confirmation, SUMOylation inhibitor project, biochemical, AlphaScreen (AID 2018); assay type: functional
[3] = miR-122 activators in hepatoma reporter cells, dose response, cell-based, Huh7 psiCHECK-miR122, Renilla luciferase, cherry-picked (AID 651956); assay type: functional;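 further: huh7 hepatoma cells stably carrying a psiCHECK-2 miR-122 sensor plasmid; renilla luciferase signal reporting endogenous miR-122 activity after 48 h compound exposure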
[4] = HEK293T cytotoxicity, dose response, cytotoxicity control for miR-122 modulator project, cell-based, inhibitor set, cherry-pick, set 2 (AID 720697); assay type: functional
[5] = Luminescence Cell-Based Dose Response HTS to Identify Inhibitors of 5'UTR Stem-Loop Driven Prion Protein mRNA Translation in H4 Neuroglioblastoma Cells. [Related pubchem assays: 1827 (Project Summary), 1813 (Primary HTS)]; assay type: functional

Chain of SUMO-activating enzyme (Q9UBE0 whole entry): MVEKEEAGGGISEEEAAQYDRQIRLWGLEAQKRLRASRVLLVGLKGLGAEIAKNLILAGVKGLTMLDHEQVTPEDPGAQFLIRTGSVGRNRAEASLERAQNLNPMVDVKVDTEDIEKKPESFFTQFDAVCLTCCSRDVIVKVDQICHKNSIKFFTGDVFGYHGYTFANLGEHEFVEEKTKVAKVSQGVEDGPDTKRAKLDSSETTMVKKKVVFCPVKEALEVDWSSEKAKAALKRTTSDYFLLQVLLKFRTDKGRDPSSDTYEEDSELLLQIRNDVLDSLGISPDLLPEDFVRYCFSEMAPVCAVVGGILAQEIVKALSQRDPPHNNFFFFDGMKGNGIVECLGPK
Chain of SUMO-activating enzyme (Q9UBT2 whole entry): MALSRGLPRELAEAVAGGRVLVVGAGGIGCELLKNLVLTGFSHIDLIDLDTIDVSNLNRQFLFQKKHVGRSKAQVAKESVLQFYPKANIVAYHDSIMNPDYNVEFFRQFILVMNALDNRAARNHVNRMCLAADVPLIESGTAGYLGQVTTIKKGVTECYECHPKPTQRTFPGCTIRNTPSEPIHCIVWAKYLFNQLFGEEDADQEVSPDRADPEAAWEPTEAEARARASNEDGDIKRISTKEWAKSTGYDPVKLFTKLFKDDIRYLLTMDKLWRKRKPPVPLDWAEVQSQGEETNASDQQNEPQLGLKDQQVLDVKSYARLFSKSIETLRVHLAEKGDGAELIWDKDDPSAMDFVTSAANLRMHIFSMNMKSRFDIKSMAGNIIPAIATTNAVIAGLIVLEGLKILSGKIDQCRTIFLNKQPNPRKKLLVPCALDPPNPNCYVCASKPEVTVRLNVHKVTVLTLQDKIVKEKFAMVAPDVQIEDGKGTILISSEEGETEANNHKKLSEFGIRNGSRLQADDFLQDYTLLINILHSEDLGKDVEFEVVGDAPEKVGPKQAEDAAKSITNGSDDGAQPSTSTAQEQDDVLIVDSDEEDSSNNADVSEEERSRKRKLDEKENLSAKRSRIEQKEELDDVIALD

Cn1c(O)c(/C=N/NC(=O)c2cc3ccccc3cc2O)c2ccccc21
EC50 [1]: 5.96 µM (active) | AC50 [2]: > 100 µM (inactive)

c1coc(-c2nnc(-c3ccco3)nn2)c1
IC50 (SUMO-activating enzyme): 0.99 µM (active)

COc1ccc(CC2=CC(=O)c3ccccc3C2=O)cc1
AC50 [3]: 20.7 µM (active) | AC50 [4]: 10.2 µM (active)

O=C(Nc1cccc(NC(=O)c2ccccc2Cl)c1)c1ccc([N+](=O)[O-])o1
EC50 [5]: 9.73 µM (active)
